Experimental data published in patent publication US4505932A, “Method of producing α2 -adrenergic receptor agonist activity” (Abbott Laboratories, priority 1984, dated 1985).
Counter-ions that a name gives are not always drawn.

What was measured:
α2 -adrenergic receptors = assay type: binding, rat; conditions: for Ki: rat brain cortex, [3H] rauwolscine, read-out: KIα2 (dissociation constant); for KIα1/KIα2: selectivity ratio, rat liver α1 vs rat brain cortex α2
α1 -adrenergic receptors = biological target: T1, α1 -adrenergic receptors (Rattus norvegicus, UniProt P15823); experiment: radioligand binding, [3H] prazosin displacement in rat liver; conditions: read-out: KIα1 (dissociation constant)
T1 construct: from tissue; host or cells: rat liver
T1 sequence (P15823 1-515): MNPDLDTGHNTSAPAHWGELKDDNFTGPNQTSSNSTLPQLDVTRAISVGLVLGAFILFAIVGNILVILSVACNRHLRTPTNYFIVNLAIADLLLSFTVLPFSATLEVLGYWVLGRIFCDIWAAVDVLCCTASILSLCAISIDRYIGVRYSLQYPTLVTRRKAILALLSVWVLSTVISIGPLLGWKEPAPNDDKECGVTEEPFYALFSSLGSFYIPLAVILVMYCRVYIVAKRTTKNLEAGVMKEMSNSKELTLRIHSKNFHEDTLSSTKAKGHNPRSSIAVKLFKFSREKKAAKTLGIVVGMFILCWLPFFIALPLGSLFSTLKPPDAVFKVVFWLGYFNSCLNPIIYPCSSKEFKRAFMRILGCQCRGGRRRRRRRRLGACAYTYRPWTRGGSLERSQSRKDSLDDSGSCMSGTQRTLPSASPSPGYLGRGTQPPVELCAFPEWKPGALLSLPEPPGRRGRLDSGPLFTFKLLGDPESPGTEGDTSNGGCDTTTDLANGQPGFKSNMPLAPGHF

[1] = tested on: spontaneously hypertensive rat; experiment: arterial blood pressure and heart rate in the spontaneously hypertensive rat (tail cuff); assay type: in vivo
Description: Two groups of Okamoto rats, which develop hypertension spontaneously when reaching young adulthood, are deprived of food for a period of 16 hours and are placed in semirestraining wire mesh cylinders maintained at a constant temperature of 36° C. An occluding cuff, operatively connected to a programmed sphygmomanometer, is placed over the tail of each rat of the group and retained near the tail base. […] A photocell is placed distal to the cuff to detect pulses resulting from the forward motion of blood flow with each heartbeat of the rat. As the pressure in the cuff increases, measurable pulses disappear at the point where the cuff pressure equals the arterial blood pressure. Measurable pluses reappear during deflation at approximately the same pressure, and arterial blood pressure is thereby established by cuff pressure at the point of pulse appearance. The heart rate is determined from the arterial pulse wave. Doses of 30 or 100 mg./kg. of the preferred compound of Example 6 were administered orally to each rat of the test groups and five interference-free signals were recorded on a Model 7 Grass polygraph for each rat at various measurement periods following administration.

α-adrenergic receptor = experiment: isolated rabbit aorta contraction, α-adrenergic receptor agonist activity; assay type: cell-based; conditions: isolated rabbit aorta strip
Description: Female rabbits, weighing 2 to 5 kg., are sacrificed by cervical dislocation. The thoracic cavity is immediately opened and the descending aorta is removed and placed in a petrie dish containing an aqueous buffer solution (Krebs buffer) of 119 mM NaCl, 25 mM […], 4.7 mM KCl, 1.5 mM MgSO4, 1.2 mM KH2 PO4, 2.5 mM CaCl2, 11 mM glucose, 0.03 mM EDTA and 0.005 mM sodium ascorbate, adjusted to a pH of 7.4. The buffer solution is continuously aerated with a mixture of 95% O2 and 5% CO2 gases. The aorta is placed on cylindrical sticks and cleaned of excess fat and connective tissue, then cut into 2 tissue segments approximately 20 mm in length. Each segment of aorta is then spiraled in strips 3.5 mm wide by turning the stick as a scapel is applied, while leaving a section of 2-3 mm at each end of the aorta section intact. The spiraled tissue is mounted in an aerated (as above) tissue bath of 10 ml. of Kreb's buffer and is attached to a Grass force transducer with an initial applied tension of 2 grams. The tissue is allowed to equilibrate in the tissue bath at a temperature of 37°±0.5° C. until the tension on the force transducer stabilizes at 2 grams.
The tissue is washed with Krebs buffer until it relaxes to baseline tension.

| Compound | Ki (α2 -adrenergic receptors) [nM] | Ki (α1 -adrenergic receptors) [nM] | KIα1/KIα2 (α2 -adrenergic receptors) | arterial blood pressure ([1]; 30 or 100 mg./kg. orally, Okamoto rats) | heart rate ([1]; spontaneously hypertensive rat, oral) | agonist character (intrinsic activity vs norepinephrine; >75% = full agonist) (α-adrenergic receptor) | EC50 (α-adrenergic receptor; contraction, read-out: ED50 (concentration producing half maximum response) in aorta strip) [nM] |
| --- | --- | --- | --- | --- | --- | --- | --- |
| Clc1cccc(Cl)c1N=C1NCCN1 [Clonidine, clonidine, reference compound] | 34 |  |  |  |  |  |  |
| CNCC1CCc2c1ccc(O)c2O (stereo not drawn) [Example 10, 1-N-Methylaminomethyl-4,5-dihydroxy indane hydrobromide] | 6 | 1690 | 282 |  |  |  |  |
| CNC[C@H](O)c1ccc(O)c(O)c1 [Epinephrine, epinephrine, reference compound] | 53 |  |  |  |  |  |  |
| NCC1CCc2c1ccc(O)c2O (stereo not drawn) [B] | 15 | 8620 | 575 |  |  |  |  |
| CN(C)CC1CCc2c1ccc(O)c2O (stereo not drawn) [Example 6, 1-N,N-Dimethylaminomethyl-4,5-dihydroxy indane hydrobromide] | 25 | 6900 | 276 | decrease the arterial blood pressure | decrease | full agonist | 1600 |
